Laboratory results published in patent US20100105655A1, “NOVEL COMPOUNDS 515” (ASTRAZENECA AB, priority 2008, published 2010).

molecular target: T1, IGFR kinase (Homo sapiens, UniProt P08069); assay: Enzyme assay (c), IGFR kinase, Caliper LabChip; format: biochemical; settings: 30 nM IGFR kinase, 6 uM ATP, 3 uM peptide mix; read-out: IGFR IC50
T1 construct: purchased Millipore
T1 sequence (P08069 31-1367): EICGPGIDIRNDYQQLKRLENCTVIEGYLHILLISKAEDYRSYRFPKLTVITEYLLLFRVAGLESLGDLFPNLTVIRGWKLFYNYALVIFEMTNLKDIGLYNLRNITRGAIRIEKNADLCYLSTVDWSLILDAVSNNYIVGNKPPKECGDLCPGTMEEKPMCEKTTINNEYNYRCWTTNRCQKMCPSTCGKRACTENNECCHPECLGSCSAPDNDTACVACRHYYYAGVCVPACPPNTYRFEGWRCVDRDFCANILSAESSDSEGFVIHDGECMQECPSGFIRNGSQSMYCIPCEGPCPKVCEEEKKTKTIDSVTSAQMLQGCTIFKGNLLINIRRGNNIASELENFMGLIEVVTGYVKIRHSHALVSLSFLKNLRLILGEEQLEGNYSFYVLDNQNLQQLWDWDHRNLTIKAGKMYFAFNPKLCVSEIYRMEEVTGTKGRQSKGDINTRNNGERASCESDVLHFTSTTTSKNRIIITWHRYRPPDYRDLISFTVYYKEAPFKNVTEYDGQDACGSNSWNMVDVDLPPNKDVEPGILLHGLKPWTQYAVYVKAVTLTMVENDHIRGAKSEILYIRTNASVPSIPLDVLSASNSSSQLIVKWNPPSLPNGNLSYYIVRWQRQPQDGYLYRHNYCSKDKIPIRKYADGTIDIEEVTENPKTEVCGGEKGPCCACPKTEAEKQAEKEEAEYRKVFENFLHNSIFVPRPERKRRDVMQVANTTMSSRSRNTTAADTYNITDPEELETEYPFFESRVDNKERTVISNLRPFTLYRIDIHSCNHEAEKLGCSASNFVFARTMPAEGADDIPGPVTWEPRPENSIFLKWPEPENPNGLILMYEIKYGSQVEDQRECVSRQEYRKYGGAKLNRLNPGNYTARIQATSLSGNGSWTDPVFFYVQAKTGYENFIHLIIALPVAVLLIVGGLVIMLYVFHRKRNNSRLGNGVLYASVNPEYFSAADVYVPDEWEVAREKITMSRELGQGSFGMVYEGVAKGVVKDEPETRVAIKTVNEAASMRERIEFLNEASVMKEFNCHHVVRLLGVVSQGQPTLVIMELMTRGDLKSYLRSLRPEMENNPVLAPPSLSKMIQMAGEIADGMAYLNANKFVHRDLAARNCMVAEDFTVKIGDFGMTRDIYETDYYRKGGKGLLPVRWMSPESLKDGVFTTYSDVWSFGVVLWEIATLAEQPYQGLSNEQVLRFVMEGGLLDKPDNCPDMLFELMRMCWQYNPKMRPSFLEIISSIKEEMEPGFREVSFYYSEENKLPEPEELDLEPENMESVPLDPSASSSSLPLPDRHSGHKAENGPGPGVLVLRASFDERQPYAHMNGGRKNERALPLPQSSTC

SMILES | IC50 [nM]
COc1cc(N2CCN(C(C)(C)CO)CC2)ccc1Nc1ncc(C)c(-c2cnc3ccc(F)cn23)n1 [Example 260, 2-[4-[4-[[4-(6-fluoroimidazo[1,2-a]pyridin-3-yl)-5-methyl-pyrimidin-2-yl]amino]-3-methoxy-phenyl]piperazin-1-yl]-2-methyl-propan-1-ol] | 11
COc1cc(N2CCN(C(=O)[C@@H](C)N)CC2)ccc1Nc1ncc(Cl)c(-c2cnc3c(F)cc(F)cn23)n1 [Example 253, (2R)-2-amino-1-[4-[4-[[5-chloro-4-(6,8-difluoroimidazo[1,2-a]pyridin-3-yl)pyrimidin-2-yl]amino]-3-methoxy-phenyl]piperazin-1-yl]propan-1-one] | 4
COc1cc(N2CCN(C(C)(C)CO)CC2)ccc1Nc1ncc(C)c(-c2cnc3cc(C)ccn23)n1 [Example 262, 2-[4-[3-methoxy-4-[[5-methyl-4-(7-methylimidazo[1,2-a]pyridin-3-yl)pyrimidin-2-yl]amino]phenyl]piperazin-1-yl]-2-methyl-propan-1-ol] | 39
COc1cc(N2CCN(CCO)[C@@H](C)C2)ccc1Nc1ncc(F)c(-c2cnc3ccccn23)n1 [Example 273, 2-[(2S)-4-[4-[(5-fluoro-4-imidazo[1,2-a]pyridin-3-yl-pyrimidin-2-yl)amino]-3-methoxy-phenyl]-2-methyl-piperazin-1-yl]ethanol] | 210
COc1cc(OC2CCN(C(=O)C(C)O)CC2)ccc1Nc1ncc(Cl)c(-c2cnc3ccccn23)n1 (stereo not drawn) [Example 9, 1-[4-[4-[(5-chloro-4-imidazo[1,2-a]pyridin-3-yl-pyrimidin-2-yl)amino]-3-methoxy-phenoxy]-1-piperidyl]-2-hydroxy-propan-1-one] | 21
COc1cc(C2CCN(C(C)=O)CC2)ccc1Nc1ncc(C2CC2)c(-c2cnc3c(F)cccn23)n1 [Example 202, 1-[4-[4-[[5-cyclopropyl-4-(8-fluoroimidazo[1,2-a]pyridin-3-yl)pyrimidin-2-yl]amino]-3-methoxy-phenyl]-1-piperidyl]ethanone] | 96
COc1cc(OC2CN(C[C@@H](C)O)C2)ccc1Nc1ncc(Cl)c(-c2cnc3ccccn23)n1 [Example 62, (2R)-1-[3-[4-[(5-chloro-4-imidazo[1,2-a]pyridin-3-yl-pyrimidin-2-yl)amino]-3-methoxy-phenoxy]azetidin-1-yl]propan-2-ol] | 19
COc1cc(O[C@H]2CCN(C(=O)C(C)O)C2)ccc1Nc1ncc(Cl)c(-c2cnc3ccccn23)n1 (mixture of isomers) [Example 15, 1-[(3S)-3-[4-[(5-chloro-4-imidazo[1,2-a]pyridin-3-yl-pyrimidin-2-yl)amino]-3-methoxy-phenoxy]pyrrolidin-1-yl]-2-hydroxy-propan-1-one] | 12
COc1cc(C2CCN(C(C)=O)CC2)ccc1Nc1ncc(F)c(-c2cnc3ccccn23)n1 [Example 78, 1-[4-[4-[(5-fluoro-4-imidazo[1,2-a]pyridin-3-yl-pyrimidin-2-yl)amino]-3-methoxy-phenyl]-1-piperidyl]ethanone] | 54

Results, then the compound that gave them:

IC50 [nM] | SMILES
8 | COc1cc(N2CCN(C(C)=O)C(C)C2)ccc1Nc1ncc(Cl)c(-c2cnc3ccccn23)n1 (stereo not drawn) [Example 3.36, 1-[4-[4-[(5-chloro-4-imidazo[1,2-a]pyridin-3-yl-pyrimidin-2-yl)amino]-3-methoxy-phenyl]-2-methyl-piperazin-1-yl]ethanone]
30 | Cc1ccc(N2CC[C@H](N(C)C)C2)cc1Nc1ncc(Cl)c(-c2cnc3ccccn23)n1 [Example 3.14, 5-chloro-N-[5-[(3S)-3-dimethylaminopyrrolidin-1-yl]-2-methyl-phenyl]-4-imidazo[1,2-a]pyridin-3-yl-pyrimidin-2-amine]
6 | COc1cc(C2CCCN(C(C)=O)C2)ccc1Nc1ncc(Cl)c(-c2cnc3ccccn23)n1 (stereo not drawn) [Example 3.29, 1-[3-[4-[(5-chloro-4-imidazo[1,2-a]pyridin-3-yl-pyrimidin-2-yl)amino]-3-methoxy-phenyl]-1-piperidyl]ethanone]
